Assay results reported in patent publication US5147876A, “2,6-di,2,4,6-, 2,5,6-tri and 2,4,5,6-tetra-substituted pyrimidines, their pharmaceutically acceptable salts, pharmaceutical compositions containing same and their use in the treatment of neurological diseases” (Mitsui Petrochemical Industries, Ltd., priority 1988, dated 1992).

Legend:
[1] = system: neuro-2a (mouse neuroblastoma cells); experiment: Action on neuro-2a: proportion of cells containing outgrown neurites; format: cell-based; conditions: mean ± S.D.
Procedure: (§1) The effects of the compounds of this invention on neuroblastoma cells were examined by the following method.
(§2) Mouse neuro 2a cells in the logarithmic growth period in the Dulbecco's modified Eagle's medium DMEM, containing 100 units/ml of penicillin G sodium and 100 micrograms/ml of streptomycin sulfate]containing 10 % of FCS were seeded in a 48-well plate so that the number of cells was 1,000 cells/well, and cultured for one day in 0.25 ml of the culture fluid in each well in an incubator containing 5 % of carbon dioxide gas in air at 37° C. Then, a 4 % aqueous glutaraldehyde solution in the same amount as a medium (0.25 ml) was added, and the culture fluid was left to stand at room temperature for 2 hours to fix the cells. After washing with water, a 0.05 % aqueous solution of methylene blue was added to stain the cells Under a microscope, the number of cells containing outgrown neurites (cells having at least one neurite with a length of at least two times as large as the long diameter of the cell) was counted visually, and the proportion of these cells in the entire cells was calculated. The well was observed over 5 or more visual fields (at least 2 % of the entire surface area of the well) continuous to the left and right from a mark put at the center of the well, and more than 200 cells was counted. One drug compound was used in 6 different concentrations at most, and three runs were conducted for each concentrations.

[2] = system: NS-20Y (mouse neuroblastoma cells); experiment: Activity on NS-20Y cells: appearance of neurites; format: cell-based
Procedure: as §1, §2
Mouse neuroblastoma cells NS-20Y were similarly cultured in a dish coated with polyornithine, and the effects of the compounds were examined.

SMILES	Number of cells having neurites with a length at least two times the diameter of each cell/total number of cells ([1]; 0.03 mM) [%]	Number of cells having neurites with a length at least two times the diameter of each cell/total number of cells ([1]; 0.1 mM) [%]	Number of cells having neurites with a length at least two times the diameter of each cell/total number of cells ([1]; 0.3 mM) [%]	Number of cells having neurites with a length at least two times the diameter of each cell/total number of cells ([1]; 1 mM) [%]	Number of cells in which neurites appeared/total number of cells ([2]; 24 hours, 0.4 mM)	Number of cells in which neurites appeared/total number of cells ([2]; 24 hours, 0.1 mM)	Number of cells in which neurites appeared/total number of cells ([2]; 48 hours, 0.1 mM)	Number of cells in which neurites appeared/total number of cells ([2]; 48 hours, 0.5 mM)	other results
CNc1cc(C)nc(N2CCCCC2)n1 [Compound 1086]	1.9 ± 1.8	3.1 ± 1.3	8.7 ± 0.8	17.4 ± 1.1	4/50	–	–	–	Number of cells in which neurites appeared/total number of cells ([2]; 48 hours, 0.02 mM): 2/50
CN(C)CCN(C(=O)c1ccccc1)c1ccnc(N2CCC(c3ccccc3)CC2)n1 [Compound 200]	7.6 ± 1.6	–	–	–	–	–	–	–	Number of cells having neurites with a length at least two times the diameter of each cell/total number of cells ([1]; 0.01 mM): 4.2 ± 1.6%; Number of cells in which neurites appeared/total number of cells ([2]; 24 hours, 0.02 mM): 4/50; Number of cells in which neurites appeared/total number of cells ([2]; 48 hours, 0.02 mM): 2/50
Cc1ccc(S(=O)(=O)O)cc1.Cc1ccccc1C(=O)N(C)c1ccnc(N2CCC(c3ccccc3)CC2)n1 [Compound 171-7]	8.5 ± 1.0	6.7 ± 3.1	–	–	–	4/50	2/50	–	–
CCOC(=O)c1cnc(N2CCCCC2)nc1CNC [Compound 812]	–	3.5 ± 0.5	3.4 ± 0.5	–	–	–	–	5/51	Number of cells in which neurites appeared/total number of cells ([2]; 24 hours, 0.5 mM): 9/50; Number of cells in which neurites appeared/total number of cells ([2]; 24 hours, 1.0 mM): 11/50; Number of cells in which neurites appeared/total number of cells ([2]; 48 hours, 0.3 mM): 9/50
CN(C(=O)c1ccccc1)c1ccnc(N2CCNCC2)n1 [Compound 344]	4.0 ± 1.7	4.7 ± 1.8	4.5 ± 2.1	–	–	–	–	2/49	Number of cells having neurites with a length at least two times the diameter of each cell/total number of cells ([1]; 0.01 mM): 3.6 ± 0.7%; Number of cells in which neurites appeared/total number of cells ([2]; 24 hours, 0.2 mM): 3/51
CC(=O)N(C)c1nc(N2CCC(c3ccccc3)CC2)ncc1C [Compound 416]	–	13.2 ± 1.3	10.8 ± 1.5	–	11/50	7/50	2/50	–	–
CN(C(=O)c1ccccc1)c1ccnc(N2CCOCC2)n1 [Compound 336]	–	5.8 ± 2.4	6.3 ± 2.8	–	–	–	–	2/50	Number of cells in which neurites appeared/total number of cells ([2]; 24 hours, 0.2 mM): 3/54
CN(C(=O)c1ccc(F)cc1)c1ccnc(N2CCC(c3ccccc3)CC2)n1 [Compound 242]	–	17.0 ± 2.3	12.8 ± 6.3	9.4 ± 3.9	6/50	–	6/50	–	Number of cells in which neurites appeared/total number of cells ([2]; 24 hours, 0.2 mM): 4/50; Number of cells in which neurites appeared/total number of cells ([2]; 48 hours, 0.2 mM): 11/50
COCc1nc(N2CCCCC2)ncc1C(=O)OC [Compound 820, 2-piperidino-4-methoxymethyl-5-methoxycarbonylpyrimidine]	–	–	–	8.4 ± 1.1	–	4/50	4/50	–	Number of cells having neurites with a length at least two times the diameter of each cell/total number of cells ([1]; 3 mM): 8.8 ± 2.3%; Number of cells in which neurites appeared/total number of cells ([2]; 24 hours, 0.5 mM): 5/53; Number of cells in which neurites appeared/total number of cells ([2]; 48 hours, 0.25 mM): 5/55
CNc1ccnc(N2CCC(c3ccccc3)CC2)n1.O=C(O)/C=C\C(=O)O [Compound 1026, 4-Methylamino-2-(4-phenylpiperidino)pyrimidine maleate]	3.5 ± 0.5	5.6 ± 2.2	–	–	–	31/50	–	–	Number of cells in which neurites appeared/total number of cells ([2]; 24 hours, 0.02 mM): 4/50; Number of cells in which neurites appeared/total number of cells ([2]; 48 hours, 0.02 mM): 2/50
CCOC(=O)c1cnc(NC(C)C)nc1CN(C)C [Compound 828]	–	–	7.3 ± 1.6	6.1 ± 2.0	–	–	–	5/51	Number of cells in which neurites appeared/total number of cells ([2]; 24 hours, 0.3 mM): 10/58; Number of cells in which neurites appeared/total number of cells ([2]; 24 hours, 0.5 mM): 5/59; Number of cells in which neurites appeared/total number of cells ([2]; 48 hours, 0.3 mM): 6/50
CNc1nc(N2CCCCC2)ncc1C [Compound 1094]	–	5.4 ± 1.9	16.9 ± 1.2	10.9 ± 1.1	7/48	4/54	–	–	Number of cells in which neurites appeared/total number of cells ([2]; 48 hours, concentration printed "0. mM"): 2/50
